Data from PubChem BioAssay (NCI).
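Cells were grown in 96-well plates and exposed to each compound for 48 hours at five concentrations; endpoints were interpolated linearly between bracketing concentrations, or set to the highest concentration if not reached. Definition used: TGI = concentration required for complete inhibition of growth.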

What was measured:
Assay in all cases: growth of human tumour cells (NCI), 48 h
[1] = system: CAKI-1 renal
[2] = system: COLO 205 colon
[3] = system: HCC-2998 colon
[4] = system: KM12 colon
[5] = system: M14 melanoma
[6] = system: MALME-3M melanoma
[7] = system: MCF7 breast
[8] = system: OVCAR-5 ovarian
[9] = system: SF-295 CNS
[10] = system: SF-539 CNS
[11] = system: SN12C renal

**Q.** `COC1CC(n2ccc(=O)[nH]c2=O)OC1CO` (centres undefined) was tested. Which TGI [1] did it give?
**A.** > 100 µM

**Q.** What about the TGI [2] of the same compound?
**A.** > 100 µM

**Q.** What about the TGI [3] of the same compound?
**A.** > 100 µM

**Q.** And the TGI [4]?
**A.** > 100 µM

**Q.** And the TGI [5]?
**A.** > 100 µM

**Q.** And the TGI [6]?
**A.** > 100 µM

**Q.** And the TGI [7]?
**A.** > 100 µM

**Q.** What about the TGI [8] of the same compound?
**A.** > 100 µM

**Q.** And the TGI [9]?
**A.** > 100 µM

**Q.** And the TGI [10]?
**A.** > 100 µM

**Q.** What about the TGI [11] of the same compound?
**A.** > 100 µM

**Q.** Which results are given for `NC(N)=NCCCC(NCc1c2ccccc2[n+]([O-])c2ccccc12)C(=O)O` (centres undefined)?
**A.** TGI [1]: > 100 µM; TGI [2]: > 100 µM; TGI [3]: > 100 µM; TGI [4]: > 100 µM; TGI [5]: > 100 µM; TGI [6]: > 100 µM; TGI [8]: > 100 µM; TGI [9]: > 100 µM; TGI [11]: > 100 µM

**Q.** For `COc1cc(O)c2c(c1O)C(=O)c1cc(C)ncc1C2=O`, which TGI [2] is on record?
**A.** > 50 µM

**Q.** What about the TGI [3] of the same compound?
**A.** > 50 µM

**Q.** What about the TGI [4] of the same compound?
**A.** > 50 µM

**Q.** And the TGI [5]?
**A.** > 50 µM

**Q.** What about the TGI [6] of the same compound?
**A.** 27.6 µM

**Q.** And the TGI [8]?
**A.** > 50 µM

**Q.** What about the TGI [9] of the same compound?
**A.** > 50 µM

**Q.** What about the TGI [10] of the same compound?
**A.** > 50 µM

**Q.** And the TGI [11]?
**A.** > 50 µM

**Q.** For `COc1cc(/C=C2/C(=O)N=C(NC(C)=O)N2C)ccc1OC(C)=O`, which TGI [1] is on record?
**A.** > 100 µM

**Q.** What about the TGI [2] of the same compound?
**A.** > 100 µM

**Q.** What about the TGI [3] of the same compound?
**A.** > 100 µM

**Q.** What about the TGI [4] of the same compound?
**A.** > 100 µM

**Q.** What about the TGI [5] of the same compound?
**A.** > 100 µM

**Q.** What about the TGI [7] of the same compound?
**A.** > 100 µM

**Q.** And the TGI [8]?
**A.** > 100 µM

**Q.** And the TGI [9]?
**A.** > 100 µM

**Q.** What about the TGI [10] of the same compound?
**A.** > 100 µM

**Q.** What about the TGI [11] of the same compound?
**A.** > 100 µM

**Q.** Which results are given for `N#Cc1nc(NC(=O)c2ccccc2)sc1N`?
**A.** TGI [1]: > 10 µM; TGI [2]: > 10 µM; TGI [3]: > 10 µM; TGI [4]: > 10 µM; TGI [5]: > 10 µM; TGI [6]: > 10 µM; TGI [7]: > 10 µM; TGI [8]: > 10 µM; TGI [9]: > 10 µM; TGI [10]: > 10 µM; TGI [11]: > 10 µM

**Q.** Which results are given for `ClCCCC1COc2ccccc2O1` (centres undefined)?
**A.** TGI [1]: > 100 µM; TGI [2]: > 100 µM; TGI [3]: > 100 µM; TGI [5]: > 100 µM; TGI [6]: > 100 µM; TGI [7]: > 100 µM; TGI [8]: > 100 µM; TGI [9]: > 100 µM; TGI [10]: > 100 µM; TGI [11]: > 100 µM

**Q.** With `CC(C(=O)N1C(=O)N(C(=O)[C@H](C)C(O)c2ccccc2)[C@H](c2ccccc2)[C@H]1c1ccccc1)[C@@H](O)c1ccccc1` (some centres undefined) as the compound, how does the TGI [1] read?
**A.** 72.4 µM

**Q.** What about the TGI [2] of the same compound?
**A.** 33.2 µM

**Q.** What about the TGI [3] of the same compound?
**A.** > 100 µM

**Q.** What about the TGI [4] of the same compound?
**A.** > 100 µM

**Q.** What about the TGI [5] of the same compound?
**A.** 61.7 µM

**Q.** What about the TGI [7] of the same compound?
**A.** > 100 µM

**Q.** What about the TGI [8] of the same compound?
**A.** 78.3 µM

**Q.** What about the TGI [9] of the same compound?
**A.** > 100 µM

**Q.** And the TGI [10]?
**A.** 81.9 µM

**Q.** What about the TGI [11] of the same compound?
**A.** > 100 µM

**Q.** Which TGI [1] does the source give for `Nc1ccc(-c2nc3ccc(Cc4ccc5nc(-c6ccc(N)cc6)oc5c4)cc3o2)cc1` here?
**A.** > 100 µM

**Q.** What about the TGI [2] of the same compound?
**A.** > 100 µM

**Q.** And the TGI [3]?
**A.** > 100 µM

**Q.** What about the TGI [4] of the same compound?
**A.** > 100 µM

**Q.** What about the TGI [5] of the same compound?
**A.** > 100 µM

**Q.** What about the TGI [6] of the same compound?
**A.** > 100 µM

**Q.** And the TGI [7]?
**A.** > 100 µM

**Q.** What about the TGI [8] of the same compound?
**A.** > 100 µM

**Q.** What about the TGI [9] of the same compound?
**A.** > 100 µM

**Q.** What about the TGI [10] of the same compound?
**A.** > 100 µM

**Q.** What about the TGI [11] of the same compound?
**A.** > 100 µM

**Q.** How did the TGI [1] turn out when `Clc1ccc2c(Cl)nc(-c3ccccc3)nc2c1` was run?
**A.** 97.3 µM

**Q.** And the TGI [2]?
**A.** > 100 µM

**Q.** And the TGI [3]?
**A.** > 100 µM

**Q.** And the TGI [4]?
**A.** > 100 µM

**Q.** What about the TGI [6] of the same compound?
**A.** > 100 µM

**Q.** What about the TGI [8] of the same compound?
**A.** > 100 µM

**Q.** And the TGI [9]?
**A.** 90.3 µM

**Q.** And the TGI [11]?
**A.** > 100 µM

**Q.** How did the TGI [1] turn out when `Oc1c2c(c3c4c1N=CC=4CCN=3)C1(C=C(Br)C(O)C(Br)=C1)CCN2` (centres undefined) was run?
**A.** 29.3 µM

**Q.** And the TGI [2]?
**A.** 0.418 µM

**Q.** What about the TGI [3] of the same compound?
**A.** 4.61 µM

**Q.** And the TGI [4]?
**A.** 6.16 µM

**Q.** What about the TGI [7] of the same compound?
**A.** 2.73 µM

**Q.** What about the TGI [8] of the same compound?
**A.** 4.49 µM

**Q.** What about the TGI [9] of the same compound?
**A.** 7.74 µM

**Q.** And the TGI [10]?
**A.** 4.17 µM

**Q.** And the TGI [11]?
**A.** 3.44 µM

**Q.** What does the source list for `CC(=O)O[C@]12CCCCC1C1(O)C(O)CCCC[C@H]12` (some centres undefined)?
**A.** TGI [2]: > 100 µM; TGI [4]: > 100 µM; TGI [5]: > 100 µM; TGI [6]: > 100 µM; TGI [9]: > 100 µM; TGI [11]: > 100 µM

**Q.** `CC1=C(c2ccc(C)cc2)NC(=S)C(C)C(c2ccc(C)cc2)=N1` (centres undefined) was tested. Which TGI [1] did it give?
**A.** > 100 µM

**Q.** And the TGI [2]?
**A.** > 100 µM

**Q.** What about the TGI [3] of the same compound?
**A.** > 100 µM

**Q.** And the TGI [4]?
**A.** > 100 µM

**Q.** And the TGI [6]?
**A.** > 100 µM

**Q.** What about the TGI [7] of the same compound?
**A.** > 100 µM

**Q.** And the TGI [8]?
**A.** > 100 µM

**Q.** And the TGI [9]?
**A.** > 100 µM

**Q.** And the TGI [10]?
**A.** > 100 µM

**Q.** And the TGI [11]?
**A.** > 100 µM

**Q.** Which TGI [1] does the source give for `CCCCCCCSCC1OC(n2cnc3c(N)ncnc32)C(O)C1O` (centres undefined) here?
**A.** 19.5 µM

**Q.** What about the TGI [2] of the same compound?
**A.** 28.3 µM

**Q.** What about the TGI [3] of the same compound?
**A.** 66.9 µM

**Q.** What about the TGI [5] of the same compound?
**A.** 48.5 µM

**Q.** And the TGI [6]?
**A.** > 100 µM

**Q.** And the TGI [8]?
**A.** > 100 µM

**Q.** And the TGI [9]?
**A.** > 100 µM

**Q.** And the TGI [10]?
**A.** > 100 µM

**Q.** And the TGI [11]?
**A.** 65.4 µM

**Q.** With `NN/C(=N\S(=O)(=O)c1cccc2nsnc12)Nc1ccc(Cl)cc1` as the compound, how does the TGI [1] read?
**A.** > 100 µM

**Q.** What about the TGI [2] of the same compound?
**A.** > 100 µM

**Q.** And the TGI [4]?
**A.** > 100 µM

**Q.** What about the TGI [5] of the same compound?
**A.** > 100 µM

**Q.** And the TGI [7]?
**A.** > 100 µM

**Q.** What about the TGI [8] of the same compound?
**A.** > 100 µM

**Q.** What about the TGI [9] of the same compound?
**A.** > 100 µM

**Q.** And the TGI [10]?
**A.** > 100 µM

**Q.** What about the TGI [11] of the same compound?
**A.** > 100 µM

**Q.** What does the source list for `CN(C)C(=O)C(F)(F)C(c1ccc(C(F)(F)F)cc1)C1C(=O)N(C)C(=O)N(C)C1=O` (centres undefined)?
**A.** TGI [1]: > 100 µM; TGI [2]: > 100 µM; TGI [3]: > 100 µM; TGI [4]: > 100 µM; TGI [5]: > 100 µM; TGI [7]: > 100 µM; TGI [8]: > 100 µM; TGI [9]: > 100 µM

**Q.** Which TGI [1] does the source give for `Nc1ccn(CC(CO)CC(c2ccccc2)P(=O)(O)O)c(=O)n1` (centres undefined) here?
**A.** > 100 µM

**Q.** And the TGI [2]?
**A.** > 100 µM

**Q.** And the TGI [3]?
**A.** > 100 µM

**Q.** What about the TGI [4] of the same compound?
**A.** > 100 µM

**Q.** What about the TGI [5] of the same compound?
**A.** > 100 µM

**Q.** And the TGI [6]?
**A.** > 100 µM

**Q.** And the TGI [8]?
**A.** > 100 µM

**Q.** What about the TGI [9] of the same compound?
**A.** > 100 µM

**Q.** And the TGI [10]?
**A.** > 100 µM

**Q.** What about the TGI [11] of the same compound?
**A.** > 100 µM

**Q.** Which results are given for `COC(=O)C1CCC[C@H]2C(CO)=C(C)C(=O)[C@@H]12` (some centres undefined)?
**A.** TGI [1]: > 100 µM; TGI [2]: > 100 µM; TGI [3]: > 100 µM; TGI [4]: > 100 µM; TGI [5]: > 100 µM; TGI [6]: > 100 µM; TGI [8]: > 100 µM; TGI [9]: > 100 µM; TGI [10]: > 100 µM; TGI [11]: > 100 µM

**Q.** What does the source list for `CCCC(=O)[O-].CCCC(=O)[O-].N.N.N.N.[Co+3].[O-][Cl+3]([O-])([O-])[O-]`?
**A.** TGI [2]: > 100 µM; TGI [3]: > 100 µM; TGI [4]: > 100 µM; TGI [5]: > 100 µM; TGI [6]: > 100 µM; TGI [8]: > 100 µM; TGI [9]: > 100 µM; TGI [10]: > 100 µM; TGI [11]: > 100 µM
